Measured values taken from patent publication US12509431B2, “1,4-dihydroquinazolinone compounds and uses thereof” (Edgewise Therapeutics, Inc., priority 2022, dated 2025).

Key:
Format in all cases: biochemical
[1] = test system: Rabbit Skeletal myofibrils (rabbit psoas muscle); assay: Myofibril ATPase assay (PK/LDH NADH-coupled), skeletal myofibrils
Description: (§1) Myofibril ATPase assays are known in the art to be useful in evaluating small molecules for the treatment of HCM and other cardiac indications. Myosin ATPase activity is assessed by using a coupled reaction system, in which ADP generated by the myosin ATPase function is coupled to the disappearance of NADH through the pyruvate kinase/lactate dehydrogenase (PK-LDH) system. ATPase activity produces ADP, which is used as a substrate for PK to produce pyruvate and regenerate ATP. The pyruvate is then used as a substrate by LDH to oxidize NADH to NAD+. The rate of the reaction is monitored through the time-dependent disappearance of NADH using absorbance at 340 nm, which, when the couple system is in stoichiometric excess, is directly correlated to the ATPase activity of the myosin. Inhibition of ATPase activity by the assayed compounds is indicated by a reduced rate of NADH loss, relative to vehicle-treated controls, over the experimental time window. Rabbit Skeletal and Porcine Ventricle are the primary sources of myofibril material.
(§2) Materials: The following stock solutions and reagents were used in the Myofibril ATPase Assay:
(§3) Stock Solutions of pCa buffer. Combine PIPES, CaCl2), and EGTA solutions with water. Adjust pH to 7.0 and bring final volume to 100 mL.
(§4) Buffer A & Buffer B. Prepare buffers A and B according to the table below.
(§5) Myofibril ATPase Assay Procedure: BSA, ATP, NADH, PEP, and DTT solutions were thawed at room temperature, then transferred to ice. Pellet-frozen myofibrils were transferred with approximately twice the required volume into a sufficiently large tube and capped. Myofibrils were thawed by rolling in a water bath for approximately 15 min at room temperature and cooled on ice. Buffers A and B were prepared by adjusting volumes as necessary for required number of wells and stored on ice. 0.5 μL of the compounds to be assayed were added into wells. 25 μL of Buffer A was dispensed into the wells, followed by 25 μL of Buffer B. The wells were measured for absorbance at 340 nm, using a kinetic protocol in which the wells are read every 1.5-2 min for 75 min. Assay data analysis was performed using a python script that filtered the raw data to retain those points falling between a starting and ending time and between a maximum and minimum absorbance, then used the filtered time-domain 340 nm absorbance data in each well to calculate a slope via linear regression analysis in units of mAU/min. Compound slopes were normalized between 100% and 0% activity, where 100% represented the slope of wells containing only compound vehicle, and fit to a 4-parameter logistic model. In addition to the fit parameters, the EC25% is calculated, relative to the 100% normalized value. In the case of inhibitors, EC50% is also calculated, if available. Fit parameters, calculated effective concentrations, filtered raw data, and calculated slopes were exported, in addition to compound-specific graphs of normalized ATPase activity versus concentration in μM.
Skeletal Myofibril Isolation:
Myofibrils from various animals and tissue types were acquired from a variety of sources: rabbit psoas muscle was purchased from Pel-Freez Biologicals (Rogers, AR) and porcine cardiac muscle was purchased from Exemplar Genetics. All myofibrils were prepared using a method based upon those described in Herrmann et al. (1993) and summarized here. Minced tissue was homogenized for 50 sec with a Polytron homogenizer into 10 volumes (relative to weight in grams) of Isolation Buffer A (50 mM Tris, pH 8.0, 0.1 M potassium acetate, 5 mM KCl, 2 mM DTT, 5 mM EDTA, 0.5% v/v Triton X-100) supplemented with 0.1 mM PMSF, 10 μM leupeptin, 5 μM pepstatin, and 0.5 mM sodium azide. The myofibrils were recovered by centrifugation (Beckman Allegra 6R, 1200 g, 10 min) and resuspended in 10 volumes Isolation Buffer B (Buffer A above without protease inhibitors or sodium azide). The myofibrils were further homogenized as before and recovered by centrifugation. […]

[2] = molecular target: T1, Porcine Ventricle myofibrils (left ventricle of Yucatan minipigs) (Sus scrofa, UniProt P79293); assay: Myofibril ATPase assay (PK/LDH NADH-coupled), ventricle myofibrils
T1 construct: Myofibrils from porcine cardiac muscle was isolated from the left ventricle of Yucatan minipigs; tissue Exemplar Genetics; host or cells: left ventricle of Yucatan minipigs
T1 sequence (P79293 whole entry): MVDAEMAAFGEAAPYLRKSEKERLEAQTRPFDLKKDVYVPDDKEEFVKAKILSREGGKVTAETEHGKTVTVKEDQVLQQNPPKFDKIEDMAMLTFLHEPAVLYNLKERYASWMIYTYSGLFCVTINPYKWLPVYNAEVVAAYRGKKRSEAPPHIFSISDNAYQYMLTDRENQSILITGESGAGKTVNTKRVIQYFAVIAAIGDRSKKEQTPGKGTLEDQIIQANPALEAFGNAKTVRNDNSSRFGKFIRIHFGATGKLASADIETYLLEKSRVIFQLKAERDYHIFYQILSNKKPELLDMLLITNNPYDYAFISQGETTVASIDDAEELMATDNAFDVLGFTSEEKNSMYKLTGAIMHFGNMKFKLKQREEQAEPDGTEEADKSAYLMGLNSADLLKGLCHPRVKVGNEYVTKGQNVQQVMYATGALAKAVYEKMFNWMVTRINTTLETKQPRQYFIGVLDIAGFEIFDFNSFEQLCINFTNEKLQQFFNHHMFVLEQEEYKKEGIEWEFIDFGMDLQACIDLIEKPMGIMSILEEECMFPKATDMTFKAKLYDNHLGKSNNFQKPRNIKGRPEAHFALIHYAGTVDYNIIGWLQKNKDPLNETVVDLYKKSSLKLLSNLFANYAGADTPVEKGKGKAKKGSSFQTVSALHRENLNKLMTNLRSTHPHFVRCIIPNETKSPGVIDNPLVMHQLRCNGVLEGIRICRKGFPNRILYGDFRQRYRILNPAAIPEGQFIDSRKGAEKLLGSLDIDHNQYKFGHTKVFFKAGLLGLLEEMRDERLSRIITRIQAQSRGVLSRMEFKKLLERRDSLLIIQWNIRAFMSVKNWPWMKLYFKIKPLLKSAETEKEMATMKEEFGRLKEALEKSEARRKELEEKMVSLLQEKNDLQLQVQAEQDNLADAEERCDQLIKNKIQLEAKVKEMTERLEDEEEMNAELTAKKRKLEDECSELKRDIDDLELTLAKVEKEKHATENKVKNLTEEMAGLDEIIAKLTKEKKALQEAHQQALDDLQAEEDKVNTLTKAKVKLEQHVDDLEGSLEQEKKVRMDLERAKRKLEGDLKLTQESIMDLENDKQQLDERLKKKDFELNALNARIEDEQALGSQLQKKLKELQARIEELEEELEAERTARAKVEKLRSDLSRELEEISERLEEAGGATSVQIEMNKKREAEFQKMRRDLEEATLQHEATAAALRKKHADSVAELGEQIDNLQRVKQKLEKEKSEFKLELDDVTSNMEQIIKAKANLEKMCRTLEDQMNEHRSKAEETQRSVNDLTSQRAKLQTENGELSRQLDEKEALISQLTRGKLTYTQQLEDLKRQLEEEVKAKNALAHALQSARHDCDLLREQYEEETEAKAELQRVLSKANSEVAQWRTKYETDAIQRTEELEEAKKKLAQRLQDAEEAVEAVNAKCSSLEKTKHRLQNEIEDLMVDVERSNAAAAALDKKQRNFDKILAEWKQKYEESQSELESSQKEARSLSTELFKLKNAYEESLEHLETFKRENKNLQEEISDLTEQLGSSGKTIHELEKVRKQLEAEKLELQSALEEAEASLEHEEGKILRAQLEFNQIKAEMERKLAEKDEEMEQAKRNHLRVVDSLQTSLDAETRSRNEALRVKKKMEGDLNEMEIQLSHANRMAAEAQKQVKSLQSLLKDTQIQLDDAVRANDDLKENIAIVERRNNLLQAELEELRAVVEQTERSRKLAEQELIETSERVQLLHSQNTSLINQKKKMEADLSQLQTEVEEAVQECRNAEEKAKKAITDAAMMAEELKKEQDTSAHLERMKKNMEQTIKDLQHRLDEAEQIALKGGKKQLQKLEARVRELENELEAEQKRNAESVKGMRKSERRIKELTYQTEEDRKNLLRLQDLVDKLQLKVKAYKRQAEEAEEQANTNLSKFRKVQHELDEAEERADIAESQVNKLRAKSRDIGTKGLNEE
Description: as §1, §2, §3, §4, §5
Cardiac Myofibril Isolation:
Myofibrils from porcine cardiac muscle was isolated from the left ventricle of Yucatan minipigs. Myofibrils were prepared using a method based upon those described in Herrmann et al. (1993) and summarized here. Minced tissue was homogenized for 50 sec with a Polytron homogenizer into 10 volumes (relative to weight in grams) of Isolation Buffer A (75 mM KCl, 10 mM Imidazole, 2 mM MgCl2, 2 mM EGTA, 1 mM NaN3, 1% v/v Triton X-100) supplemented with 4 mM Phosphocreatine, 1 mM ATP, 50 mM BDM, 1 mM DTT, 1 mM Benzamide HCl, 0.1 mM PMSF, 10 μM leupeptin, 5 μM pepstatin, and 10 mM EDTA. The myofibrils were recovered by centrifugation (Beckman Allegra 6R, 1200 g, 15 min) and resuspended in 10 volumes Isolation Buffer B (Buffer A above without supplemental reagents). The myofibrils were further homogenized described above and recovered by centrifugation for 7 mins. Cellular membranes and debris were removed by 3 washes in Isolation Buffer B, centrifuging each as before. […]

[3] = test system: Porcine Atria myofibrils; assay: Myofibril ATPase assay (PK/LDH NADH-coupled), atria myofibrils
Description: as §5

With CC(NC(=O)CN1Cc2c(ccnc2C2CC2(F)F)NC1=O)c1ncc(F)cc1F (stereo not drawn) [Compound N51] the “Rabbit Psoas IC25” value ([1]; Table 7) was 100 µM, the “Porcine Ventricle IC25” value ([2]; Table 7) was 100 µM and the “Porcine Atria IC25” value ([3]; Table 7) was 100.00 µM.
For C[C@H](NC(=O)[C@H](Cc1ccccc1)N1Cc2cc(F)ccc2NC1=O)c1ccc(F)cc1F [Compound B219], the “Rabbit Psoas IC25” value ([1]; Table 8) was 31.8 µM, the “Porcine Ventricle IC25” value ([2]; Table 8) was 100 µM and the “Porcine Atria IC25” value ([3]; Table 8) was 100.00 µM.
C[C@H](NC(=O)CN1Cc2nc(Br)ccc2NC1=O)c1ccc(F)cc1F [Compound N103] was tested, and the “Rabbit Psoas IC25” value ([1]; Table 7) was 1.03 µM, the “Porcine Ventricle IC25” value ([2]; Table 7) was 9.96 µM and the “Porcine Atria IC25” value ([3]; Table 7) was 0.16 µM.
In the case of C[C@H](NC(=O)CN1Cc2cc(F)cc(C#N)c2NC1=O)c1ccc(C#N)cc1F [Compound B27], the “Rabbit Psoas IC25” value ([1]; Table 8) is reported as 0.5422 µM, the “Porcine Ventricle IC25” value ([2]; Table 8) is reported as 15.59 µM and the “Porcine Atria IC25” value ([3]; Table 8) is reported as 2.10 µM.
In the case of N#Cc1cc(F)c2c(c1)OC[C@H]2NC(=O)CN1C(=O)Nc2cccc(C#N)c2C12CC2 [Compound B303], the “Rabbit Psoas IC25” value ([1]; Table 8) is reported as 0.02 µM, the “Porcine Ventricle IC25” value ([2]; Table 8) is reported as 0.09 µM and the “Porcine Atria IC25” value ([3]; Table 8) is reported as 0.08 µM.
In the case of C[C@@H](NC(=O)CN1C(=O)Nc2ccc(F)cc2C12CC2)c1ccc(C#N)nn1 [Compound B334], the “Rabbit Psoas IC25” value ([1]; Table 8) is reported as 1.02 µM, the “Porcine Ventricle IC25” value ([2]; Table 8) is reported as 1.56 µM and the “Porcine Atria IC25” value ([3]; Table 8) is reported as 0.58 µM.
C[C@@H](NC(=O)CN1Cc2c(ccc(F)c2F)NC1=O)c1cc2ccccc2cn1 [Compound B284] was tested, and the “Rabbit Psoas IC25” value ([1]; Table 8) was 100.00 µM, the “Porcine Ventricle IC25” value ([2]; Table 8) was 0.44 µM and the “Porcine Atria IC25” value ([3]; Table 8) was 0.87 µM.
O=C(CN1Cc2c(ccnc2C(F)(F)F)NC1=O)N[C@@H](CO)c1ncc(F)cc1F [Compound N50] was tested, and the “Rabbit Psoas IC25” value ([1]; Table 7) was 2.278 µM, the “Porcine Ventricle IC25” value ([2]; Table 7) was 100 µM and the “Porcine Atria IC25” value ([3]; Table 7) was 9.91 µM.
In the case of CC(C)C[C@H](C(=O)N[C@H](C)c1ccc(F)cc1F)N1Cc2c(ccc(F)c2F)NC1=O [Compound B61], the “Rabbit Psoas IC25” value ([1]; Table 8) is reported as 100 µM, the “Porcine Ventricle IC25” value ([2]; Table 8) is reported as 100 µM and the “Porcine Atria IC25” value ([3]; Table 8) is reported as 100.00 µM.
For C[C@@H]1c2ccccc2NC(=O)N1CC(=O)N[C@@H](CO)c1ncc(F)cc1F [Compound B165], the “Rabbit Psoas IC25” value ([1]; Table 8) was 100 µM, the “Porcine Ventricle IC25” value ([2]; Table 8) was 100 µM and the “Porcine Atria IC25” value ([3]; Table 8) was 17.36 µM.
C[C@H](NC(=O)CN1C(=O)Nc2ccc(C#N)nc2C12CC2)c1ncc(F)cc1F [Compound N15, 2-{6′-Cyano-2′-oxo-1′H-spiro[cyclopropane-1,4′-pyrido[3,2-d]pyrimidin]-3′-yl}-N-[(1S)-1-(3,5-difluoropyridin-2-yl)ethyl]acetamide] was tested, and the “Rabbit Psoas IC25” value ([1]; Table 7) was 0.197 µM, the “Porcine Ventricle IC25” value ([2]; Table 7) was 2.788 µM and the “Porcine Atria IC25” value ([3]; Table 7) was 0.07 µM.
For C[C@@H](NC(=O)CN1Cc2c(C#N)cccc2NC1=O)c1ncc(F)cc1F [Compound B153], the “Rabbit Psoas IC25” value ([1]; Table 8) was 0.5161 µM, the “Porcine Ventricle IC25” value ([2]; Table 8) was 100 µM and the “Porcine Atria IC25” value ([3]; Table 8) was 16.33 µM.
C[C@H](C(=O)N[C@H](CO)c1ccc(F)cc1F)N1Cc2c(Cl)cccc2NC1=O [Compound B213] was tested, and the “Rabbit Psoas IC25” value ([1]; Table 8) was 100 µM, the “Porcine Ventricle IC25” value ([2]; Table 8) was 100 µM and the “Porcine Atria IC25” value ([3]; Table 8) was 97.43 µM.
With N#Cc1cnc2c(n1)CC[C@@H]2NC(=O)CN1C(=O)Nc2ccc(C#N)nc2C12CC2 [Compound N136] the “Rabbit Psoas IC25” value ([1]; Table 7) was 100.00 µM, the “Porcine Ventricle IC25” value ([2]; Table 7) was 10.90 µM and the “Porcine Atria IC25” value ([3]; Table 7) was 0.29 µM.
For CC(C)C[C@H](C(=O)N[C@@H](C)c1ccc(F)cc1F)N1Cc2nc(F)ccc2NC1=O [Compound N90], the “Rabbit Psoas IC25” value ([1]; Table 7) was 49.64 µM, the “Porcine Ventricle IC25” value ([2]; Table 7) was 100 µM and the “Porcine Atria IC25” value ([3]; Table 7) was 100.00 µM.
With Cc1cc(C(C)NC(=O)CN2Cc3c(ccc(F)c3F)NC2=O)ncc1Cl (stereo not drawn) [Compound B70] the “Rabbit Psoas IC25” value ([1]; Table 8) was 1.912 µM, the “Porcine Ventricle IC25” value ([2]; Table 8) was 1.114 µM and the “Porcine Atria IC25” value ([3]; Table 8) was 0.35 µM.
In the case of N#Cc1ccc([C@@H](CO)NC(=O)CN2C(=O)Nc3cccnc3C23CC3)c(F)c1 [Compound N36], the “Rabbit Psoas IC25” value ([1]; Table 7) is reported as 1.604 µM, the “Porcine Ventricle IC25” value ([2]; Table 7) is reported as 25.16 µM and the “Porcine Atria IC25” value ([3]; Table 7) is reported as 8.01 µM.
In the case of C[C@@H](NC(=O)CN1Cc2c(ccc(F)c2F)NC1=O)c1ncc(F)cc1Cl [Compound B36], the “Rabbit Psoas IC25” value ([1]; Table 8) is reported as 0.0105 µM, the “Porcine Ventricle IC25” value ([2]; Table 8) is reported as 0.0148 µM and the “Porcine Atria IC25” value ([3]; Table 8) is reported as 0.02 µM.
C[C@@H](NC(=O)CN1Cc2c(ccc(F)c2F)NC1=O)c1ncc(C(N)=O)cc1O [Compound B250] was tested, and the “Rabbit Psoas IC25” value ([1]; Table 8) was 36.83 µM, the “Porcine Ventricle IC25” value ([2]; Table 8) was 60.47 µM and the “Porcine Atria IC25” value ([3]; Table 8) was 81.49 µM.
C[C@@H](NC(=O)CN1C(=O)Nc2ccc(C#N)nc2C12CC2)c1ncc(F)cc1F [Compound N14] was tested, and the “Rabbit Psoas IC25” value ([1]; Table 7) was 100 µM, the “Porcine Ventricle IC25” value ([2]; Table 7) was 100 µM and the “Porcine Atria IC25” value ([3]; Table 7) was 1.16 µM.
In the case of C[C@@H](NC(=O)CN1Cc2c(ccc(F)c2F)NC1=O)c1ccncc1F [Compound B99], the “Rabbit Psoas IC25” value ([1]; Table 8) is reported as 100 µM, the “Porcine Ventricle IC25” value ([2]; Table 8) is reported as 100 µM and the “Porcine Atria IC25” value ([3]; Table 8) is reported as 0.70 µM.
With O=C(CN1Cc2cc(F)ccc2NC1=O)N[C@@H](CO)c1ccc(F)cc1F [Compound B218] the “Rabbit Psoas IC25” value ([1]; Table 8) was 9.306 µM, the “Porcine Ventricle IC25” value ([2]; Table 8) was 100 µM and the “Porcine Atria IC25” value ([3]; Table 8) was 8.55 µM.
In the case of C[C@@H](NC(=O)CN1C(=O)Nc2ccc(F)cc2C12CC2)c1ncc(F)cc1F [Compound B163], the “Rabbit Psoas IC25” value ([1]; Table 8) is reported as 0.4728 µM, the “Porcine Ventricle IC25” value ([2]; Table 8) is reported as 31.68 µM and the “Porcine Atria IC25” value ([3]; Table 8) is reported as 2.08 µM.
C[C@H](NC(=O)[C@@H](C)N1Cc2nc(F)ccc2NC1=O)c1ccc(F)cc1 [Compound N99] was tested, and the “Rabbit Psoas IC25” value ([1]; Table 7) was 100 µM, the “Porcine Ventricle IC25” value ([2]; Table 7) was 100 µM and the “Porcine Atria IC25” value ([3]; Table 7) was 8.28 µM.
In the case of C[C@H](NC(=O)CN1Cc2c(C#N)cccc2NC1=O)c1ncc(F)cc1F [Compound B154], the “Rabbit Psoas IC25” value ([1]; Table 8) is reported as 0.0315 µM, the “Porcine Ventricle IC25” value ([2]; Table 8) is reported as 2.518 µM and the “Porcine Atria IC25” value ([3]; Table 8) is reported as 0.18 µM.
CCOc1ccc2c(n1)CN(CC(=O)N[C@@H](C)c1ccc(F)cc1F)C(=O)N2 [Compound N118] was tested, and the “Rabbit Psoas IC25” value ([1]; Table 7) was 0.152 µM, the “Porcine Ventricle IC25” value ([2]; Table 7) was 5.896 µM and the “Porcine Atria IC25” value ([3]; Table 7) was 0.75 µM.
